In ChEMBL document CHEMBL2311418, “Structure-activity relationships of antitubercular salicylanilides consistent with disruption of the proton gradient via proton shuttling” (Bioorg Med Chem, 2013):
Converted amounts (≈) assume the structure as drawn.

What was measured:
[1] = system: Mycobacterium tuberculosis; assay: Antitubercular activity against Mycobacterium tuberculosis H37Rv ATCC27294 assessed as complete cessation of growth; assay type: functional; conditions: H37Rv ATCC 27294
[2] = Cytotoxicity against mouse macrophage cell line J774.1 (ATCC TIB-67) for 3 days by Alamar Blue; assay type: cell-based; conditions: 72 h

SMILES	MIC [1]	IC50 [2]
O=C(Nc1cccc(C(F)(F)F)c1)c1cc(F)ccc1O	6.3 µM (≈ 1.89 µg/mL)	6.1 µM
O=C(Nc1cc(C(F)(F)F)cc(C(F)(F)F)c1)c1cc(Br)ccc1O	6.3 µM (≈ 2.7 µg/mL)	4.9 µM
O=C(Nc1ccc(F)cc1F)c1cc(Cl)ccc1O	13 µM (≈ 3.69 µg/mL)	8.5 µM
O=C(Nc1ccc(C(F)(F)F)cc1)c1cc(Cl)ccc1O	1.6 µM (≈ 0.505 µg/mL)	2.8 µM
O=C(Nc1cc(F)ccc1Cl)c1cc(Cl)ccc1O	3.1 µM (≈ 0.93 µg/mL)	3.2 µM
O=C(Nc1ccc(C(F)(F)F)cc1Cl)c1cc(Cl)ccc1O	0.8 µM (≈ 0.28 µg/mL)	2.4 µM
O=C(Nc1ccc(F)c(F)c1F)c1cc(Cl)ccc1O	6.3 µM (≈ 1.9 µg/mL)	6.7 µM
O=C(Nc1ccc(C(F)(F)F)c(C(F)(F)F)c1)c1cc(Cl)ccc1O	0.8 µM (≈ 0.307 µg/mL)	4.9 µM
O=C(Nc1ccc(F)c(F)c1)c1cc(Cl)ccc1O	3.1 µM (≈ 0.879 µg/mL)	7.7 µM
COc1ccc(O)c(C(=O)Nc2cc(C(F)(F)F)cc(C(F)(F)F)c2)c1	6.3 µM (≈ 2.39 µg/mL)	7.7 µM
O=C(O)c1cccc(NC(=O)c2cc(Cl)ccc2O)c1	> 50 µM	> 60 µM
O=C(Nc1cccc(C(F)(F)F)c1C(F)(F)F)c1cc(Cl)ccc1O	6.3 µM (≈ 2.42 µg/mL)	8.1 µM
Cc1cc(C)cc(NC(=O)c2cc(Cl)ccc2O)c1	≥ 50 µM	21 µM
COc1ccc(Cl)cc1C(=O)Nc1cc(C(F)(F)F)cc(C(F)(F)F)c1	> 50 µM	> 60 µM
O=C(Nc1ccc(Oc2ccccc2)cc1)c1cc(Cl)ccc1O	13 µM (≈ 4.42 µg/mL)	43 µM
O=C(Nc1ccc(N2CCOCC2)cc1)c1cc(Cl)ccc1O	> 50 µM	
O=C(Nc1ccc(F)cc1C(F)(F)F)c1cc(Cl)ccc1O	6.3 µM (≈ 2.1 µg/mL)	13 µM
O=C(Nc1ccccc1)c1cccc(NC(=O)c2cc(Cl)ccc2O)c1	> 50 µM	> 60 µM
Nc1ccc(Cl)cc1C(=O)Nc1cc(C(F)(F)F)cc(C(F)(F)F)c1	> 50 µM	> 60 µM
N#Cc1ccc(NC(=O)c2cc(Cl)ccc2O)cc1	13 µM (≈ 3.54 µg/mL)	11 µM
CC(=O)Oc1ccc(Cl)cc1C(=O)Nc1cc(C(F)(F)F)cc(C(F)(F)F)c1	1.6 µM (≈ 0.681 µg/mL)	> 60 µM
COc1cc(NC(=O)c2cc(Cl)ccc2O)cc(C(F)(F)F)c1	6.3 µM (≈ 2.18 µg/mL)	18 µM
O=C(Nc1ccc(C(F)(F)F)cc1)c1cc(F)ccc1O	3.1 µM (≈ 0.928 µg/mL)	5.4 µM
O=C(Nc1cc(O)c(Cl)cc1Cl)c1cc(Cl)ccc1O	> 50 µM	32 µM
O=C(Nc1cccc(F)c1)c1cc(Cl)ccc1O	6.3 µM (≈ 1.67 µg/mL)	15 µM
O=C(Nc1cc(F)c(F)c(F)c1)c1cc(Cl)ccc1O	1.6 µM (≈ 0.483 µg/mL)	4.7 µM

SMILES	MIC [1]	IC50 [2]
O=C(Nc1cc(C(F)(F)F)cc(C(F)(F)F)c1)c1cc([N+](=O)[O-])ccc1O	≥ 50 µM	> 60 µM
O=C(Nc1cc(Cl)c(Cl)c(Cl)c1)c1cc(Cl)ccc1O	1.6 µM (≈ 0.562 µg/mL)	5.4 µM
O=C(Nc1cc(Cl)ccc1O)c1cc(C(F)(F)F)cc(C(F)(F)F)c1	> 50 µM	12 µM
COc1ccc(C(F)(F)F)c(NC(=O)c2cc(Cl)ccc2O)c1	6.3 µM (≈ 2.18 µg/mL)	4.8 µM
O=C(Nc1ccc(Br)cc1C(F)(F)F)c1cc(Cl)ccc1O	6.3 µM (≈ 2.49 µg/mL)	11 µM
O=C(Nc1cc(C(F)(F)F)ccc1Cl)c1cc(F)ccc1O	3.1 µM (≈ 1.03 µg/mL)	6.1 µM
O=C(Oc1cc(C(F)(F)F)cc(C(F)(F)F)c1)c1cc(Cl)ccc1O	> 50 µM	> 60 µM
Cc1c(NC(=O)c2cc(Cl)ccc2O)cccc1C(F)(F)F	3.1 µM (≈ 1.02 µg/mL)	8 µM
O=C(Nc1cc(C(F)(F)F)cc(C(F)(F)F)c1)Nc1cc(Cl)ccc1O	≥ 50 µM	13 µM
O=C(Nc1cc(F)c(F)cc1F)c1cc(Cl)ccc1O	3.1 µM (≈ 0.935 µg/mL)	6.2 µM
O=C(Nc1ccc(OC(F)(F)F)cc1)c1cc(Cl)ccc1O	3.1 µM (≈ 1.03 µg/mL)	7.3 µM
O=C(Nc1ccc(F)c(C(F)(F)F)c1)c1cc(Cl)ccc1O	1.6 µM (≈ 0.534 µg/mL)	5.3 µM
Cc1c(NC(=O)c2cc(Cl)ccc2O)cc(C(F)(F)F)cc1C(F)(F)F	3.1 µM (≈ 1.23 µg/mL)	3.2 µM
O=C(Nc1ccccc1C(F)(F)F)c1cc(Cl)ccc1O		19 µM
CC(C)(C)c1cc(NC(=O)c2cc(Cl)ccc2O)cc(C(C)(C)C)c1	6.3 µM (≈ 2.27 µg/mL)	4.1 µM
N#Cc1ccc(NC(=O)c2cc(Cl)ccc2O)cc1C(F)(F)F	6.3 µM (≈ 2.15 µg/mL)	5.8 µM
O=C(Nc1ccccc1S(=O)(=O)c1ccccc1)c1cc(Cl)ccc1O	> 50 µM	> 60 µM
O=C(Nc1cc(C(F)(F)F)ccc1Cl)c1cc(Cl)ccc1O	1.6 µM (≈ 0.56 µg/mL)	3.5 µM
O=C(Nc1ccccc1)c1ccc(NC(=O)c2cc(Cl)ccc2O)cc1	> 50 µM	> 60 µM
COc1ccc(NC(=O)c2cc(Cl)ccc2O)cc1	> 50 µM	> 60 µM
O=C(Nc1cc(C(F)(F)F)cc(C(F)(F)F)c1)c1ccccc1	> 50 µM	
O=C(Nc1cc(Br)ccc1C(F)(F)F)c1cc(Cl)ccc1O	1.6 µM (≈ 0.631 µg/mL)	5.8 µM
O=C(Nc1c(F)cccc1F)c1cc(Cl)ccc1O	> 50 µM	> 60 µM
O=C(Nc1ccccc1)c1cc(Cl)ccc1O	13 µM (≈ 3.22 µg/mL)	22 µM
O=C(Nc1c(Cl)cccc1C(F)(F)F)c1cc(Cl)ccc1O	> 50 µM	23 µM
Oc1ccc(Cl)cc1CNc1cc(C(F)(F)F)cc(C(F)(F)F)c1	≥ 50 µM	7.8 µM

SMILES	MIC [1]	IC50 [2]
O=C(Nc1ccc(F)cc1)c1cc(Cl)ccc1O	13 µM (≈ 3.45 µg/mL)	17 µM
Cc1ccc(NC(=O)c2cc(Cl)ccc2O)cc1I	6.3 µM (≈ 2.44 µg/mL)	6.3 µM
O=C(Nc1cc(Cl)cc(Cl)c1)c1cc(Cl)ccc1O	1.6 µM (≈ 0.507 µg/mL)	3.1 µM
O=C(Nc1cc(C(F)(F)F)ccc1C(F)(F)F)c1cc(Cl)ccc1O	3.1 µM (≈ 1.19 µg/mL)	6.6 µM
O=C(Nc1cc(C(F)(F)F)ccc1F)c1cc(Cl)ccc1O	1.6 µM (≈ 0.534 µg/mL)	2.6 µM
O=C(Nc1cc(C(F)(F)F)cc(C(F)(F)F)c1)c1cc(Cl)ccc1O [IMD-0354]	3.1 µM (≈ 1.19 µg/mL)	5.2 µM
CC(C)(C)c1ccc(NC(=O)c2cc(Cl)ccc2O)cc1	13 µM (≈ 3.95 µg/mL)	19 µM
O=C(Nc1cc(C(F)(F)F)cc(C(F)(F)F)c1)c1cc(I)ccc1O	6.3 µM (≈ 2.99 µg/mL)	5.6 µM
O=C(Nc1cc(F)c(Br)c(F)c1)c1cc(Cl)ccc1O	1.6 µM (≈ 0.58 µg/mL)	4.3 µM
N#Cc1cccc(NC(=O)c2cc(Cl)ccc2O)c1	25 µM (≈ 6.82 µg/mL)	10 µM
O=C(Nc1cccc(C(F)(F)F)c1F)c1cc(Cl)ccc1O	3.1 µM (≈ 1.03 µg/mL)	5.3 µM
O=C(Nc1cc(C(F)(F)F)cc(C(F)(F)F)c1)c1cc(-n2cccc2)ccc1O	3.1 µM (≈ 1.28 µg/mL)	3.1 µM
O=C(Nc1cccc(Br)c1)c1cc(Cl)ccc1O	6.3 µM (≈ 2.06 µg/mL)	5.7 µM
O=C(Nc1cc(C(F)(F)F)cc(C(F)(F)F)c1)c1cc(Cl)cc(Cl)c1O	13 µM (≈ 5.44 µg/mL)	> 60 µM
O=C(Nc1cc(C(F)(F)F)cc(C(F)(F)F)c1)c1ccccc1O	6.3 µM (≈ 2.2 µg/mL)	12 µM
Cc1c(C(F)(F)F)cc(NC(=O)c2cc(Cl)ccc2O)cc1C(F)(F)F	0.8 µM (≈ 0.318 µg/mL)	< 1.9 µM
O=C(Nc1cc(C(F)(F)F)ccc1Br)c1cc(Cl)ccc1O	0.8 µM (≈ 0.316 µg/mL)	2.9 µM
NC(=O)c1ccc(NC(=O)c2cc(Cl)ccc2O)cc1	> 50 µM	> 60 µM
O=C(Nc1cc(C(F)(F)F)cc(C(F)(F)F)c1)c1cc(Cl)ccc1OCc1ccccc1	> 50 µM	> 60 µM
O=C(Nc1cc(F)cc(F)c1)c1cc(Cl)ccc1O	3.1 µM (≈ 0.879 µg/mL)	6.1 µM
O=C(Nc1ccc(S(=O)(=O)Nc2ccccc2)cc1)c1cc(Cl)ccc1O	> 50 µM	> 60 µM
O=C(Nc1cc([N+](=O)[O-])ccc1F)c1cc(Cl)ccc1O	6.3 µM (≈ 1.96 µg/mL)	8.5 µM
O=C(Nc1cc(F)cc(F)c1)c1cc(F)ccc1O	6.3 µM (≈ 1.68 µg/mL)	9.6 µM
Oc1ccc(Cl)cc1C(=S)Nc1cc(C(F)(F)F)cc(C(F)(F)F)c1	1.6 µM (≈ 0.64 µg/mL)	
